Test results reported in patent US6978572B1, “Method and device for attracting insects” (Colorado State University Research Foundation, priority 1998, dated 2005).
Values joined by “and” are separate entries in the source; they are usually repeats but may differ in a detail not shown here. Equal entries are not always repeated. “Also recorded” adds a separate entry of the source. Where two headings read alike, the source gives them in different places.

What was measured:
[1] = test system: western corn root worm larvae; details: literature reports; cited from earlier work
Reticulitermes flavipes = assay: T-tube choice-test behavioral bioassay with CO2; format: in vivo; details: versus ambient air
Experimental: (§1) Behavioral bioassay apparatus: The choice-test bioassay apparatus was constructed from a glass T-tube (5 mm inside diameter, 5 mm stem, with each branch 4.5 cm long). Each branch of the ‘T’ was bent downward (2.5 cm from the junction of the ‘T’) at a 45° angle to form a pitfall trap. A 5 mm NMR cap (cat. no. 100-0050, Drummond Scientific, Broomall, Pa.) with a 1 mm pinhole in it was firmly pushed over the end of each bent branch. A 25 cm length of Teflon tubing (0.8 mm inside diameter) was inserted 3 mm into the hole in each NMR cap and the other end of the tubing was connected to a 35 ml polyethylene syringe (cat. no. 106-0490, Sherwood Medical, St. Louis, Mo.). The two 35-ml syringes were connected to a syringe pump which was adjusted to provide an airflow of 1 ml per min into each choice arm of the bioassay apparatus. Mixtures of CO2 and ambient air were tested to determine the termite response to a range of CO2 concentrations. A 35-ml syringe was rinsed with distilled water and partially filled (5 ml) with ambient air. Different amounts of 100% CO2 were obtained with a smaller glass syringe from a tank and injected into the 35-ml syringe. Ambient air was then drawn into the 35-ml syringe to fill it and mix the gases by turbulence as the syringe was loaded. A 2nd 35-ml polyethylene syringe was filled with ambient air for a control. Measurements with GC-MS-SIM confirmed that the CO2 concentrations reached equilibrium after 15 min. The CO2 concentration of the syringes was determined by using GC-MS-SIM analysis (see below) before each bioassay. Bioassays were conducted with both Reticulitermes tibialis and Reticulitermes flavipes for 1, 2, 5, 10, 20, 50 and 500 mmol per mol concentrations of CO2 and with Reticulitermes virginicus for 5, 10, 20, and 50 mmol per mol. Procedure: For bioassays, termite workers were collected from plastic tubs by using a camel's hair brush and were placed into a holding container constructed from a 3 cm length of Teflon tubing (8 mm inside diameter). The container was plugged at one end with a NMR cap with two holes (1 mm) drilled in the bottom. A second NMR cap with a 4 mm hole was inserted backwards into the other end of the Teflon tube. The end of the NMR cap was sealed with a small square of cellophane held in place with a plastic tube (a piece of plastic soda straw) that fit snugly over the open end. Termites (5 workers) were placed in the container and the top was sealed. The container was placed horizontally and left undisturbed for 20 min. The T-tube apparatus was assembled and clamped horizontally on top of a block of foam rubber (12 by 12 cm) with a wire bent into a U-shape. The syringe pump was turned on, and after 3 min of pumping, the cellophane seal was removed from the holding container and the entrance to the holding container was gently connected to the central arm of the T-tube, allowing termites to crawl out and enter the apparatus. Bioassays were conducted for 15 min, after which the number of termites in each pitfall was recorded. CO2 measurements: Gas chromatography-mass spectrometry in selected ion monitoring mode (GC-MS-SIM) at m/e 44 was used to determine CO2 concentrations. A Hewlett-Packard Series II 5890 gas chromatograph interfaced with a Hewlett-Packard 5971 mass selective detector was used with a methyl silicone capillary column (30 m×0.32 mm inside diameter, RSL-150, Alltech, Deerfield, Ill.). […]

Reticulitermes tibialis = assay: T-tube choice-test behavioral bioassay with CO2; format: in vivo
Experimental: as §1

[2] = test system: Reticulitermes virginicus; assay: T-tube choice-test behavioral bioassay with CO2; format: in vivo; details: versus ambient air
Experimental: as §1

[3] = test system: western corn root worm larvae
wireworm larvae = details: Doane et al. (1975); cited from earlier work
[4] = test system: plant-parasitic nematodes; details: cited from earlier work

ClCCl [dichloromethane, reference compound]
Attraction of larvae reported in earlier publications [1]: attractive to Diabrotica larvae

O=C=O [CO2, Carbon dioxide]
CO2 concentration of best attraction (Reticulitermes flavipes): 10 mmol per mol | Termites choosing CO2 side versus control side (Reticulitermes tibialis; 5 mmol/mol CO2 versus ambient air): significantly greater than the number that moved to the control side; also recorded: significantly more often; also recorded: Significantly more termites (p<0.05) were attracted to the side containing 5 mmol/mol CO2 than to the control side | CO2 concentration of best attraction (Reticulitermes tibialis; versus ambient air): 5 mmol per mol | CO2 concentrations to which termites were attracted (Reticulitermes tibialis; versus ambient air, 5 workers, 15 min): 10 mmol per mol and 20 mmol per mol | CO2 concentration of best attraction [2]: 10 mmol per mol | Selective response, attraction to higher CO2 concentration ([3]; 0.125 mmol/mol difference at higher base concentrations): no difference in attraction was observed in any of the tests at higher concentrations | Larvae attracted to CO2 side versus control side ([3]; 10 mmol/mol CO2 (10.43±0.18) versus ambient air, syringe sources): significantly more western corn root worm larvae (P<0.05) were attracted to the side containing 10 mmol/mol CO2 | Selective response, attraction to higher CO2 concentration ([3]; 1 versus 1.125 mmol/mol (actual 1.06±0.05 versus 1.18±0.05)): significantly greater attraction was observed to 1.125 mmol/mol than to 1 mmol/mol | Selective response, attraction to higher CO2 concentration ([3]; 1 versus 1.25 mmol/mol): more attracted to the higher CO2 concentration | Selective response, attraction to higher CO2 concentration ([3]; 1 versus 1.50 mmol/mol): Significantly more larvae were attracted | Selective response, attraction to higher CO2 concentration ([3]; 2 versus 2.25 mmol/mol): more attracted to the higher CO2 concentration | Selective response, attraction to higher CO2 concentration ([3]; 2 versus 2.50 mmol/mol): Significantly more larvae were attracted | Selective response, attraction to higher CO2 concentration ([3]; 5 versus 5.25 mmol/mol): no difference in attraction was observed | Selective response, attraction to higher CO2 concentration ([3]; 5 versus 5.50 mmol/mol): Significantly more larvae were attracted | Selective response, attraction to higher CO2 concentration ([3]; 10 versus 10.25 mmol/mol): no difference in attraction was observed | Selective response, attraction to higher CO2 concentration ([3]; 10 versus 10.50 mmol/mol): Significantly more larvae were attracted | Selective response, attraction to higher CO2 concentration ([3]; 20 versus 20.25 mmol/mol): no difference in attraction was observed | Selective response, attraction to higher CO2 concentration ([3]; 20 versus 20.50 mmol/mol): no difference in attraction was observed | Smallest difference between the 2 CO2 choices still attracting larvae to the higher concentration ([3]; base level 1 mmol/mol): 0.125 mmol/mol | CO2 excess over control at which larvae were 1st attracted ([3]; control contained 1, 2, 5, 10, and 20 mmol/mol CO2): 12.5% | Lowest CO2 concentration significantly attractive to neonate larvae ([3]; control side ambient air 0.99±0.02 mmol/mol): 1.125±0.04 mmol/mol | Highest concentration of CO2 to which larvae were attracted ([3]; dose-response, syringe sources): 100 mmol/mol and 85.6±1.20 mmol/mol | Most attractive (optimal) concentrations of CO2 ([3]; dose-response, syringe sources): 2.51-4.20 mmol/mol and 2.51±0.13 mmol/mol and 4.20±0.21 mmol/mol | Lowest concentration of CO2 attractive to the larvae ([3]; dose-response, syringe sources, control 0.91±0.03): 1.34±0.05 mmol/mol | Smallest CO2 difference to which larvae respond (wireworm larvae): 0.02% | CO2 threshold for nematode response ([4]; higher baseline concentration (1.0%)): 0.05% | CO2 threshold for nematode response ([4]; low baseline levels of CO2 (0.1%)): 0.01% | Attraction of larvae reported in earlier publications [1]: highly attracted to CO2
